Results published in PubChem BioAssay (NCI).
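Grown in 96-well plates, cells were treated for 48 hours with each compound at five concentrations. Insufficient inhibition: endpoint recorded as highest concentration tested. GI50: concentration for 50% inhibition of growth. Definition used: TGI = concentration required for complete inhibition of growth.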

How the values were obtained:
Experiment in all cases: growth of human tumour cells (NCI), 48 h
HCC-2998 colon = tested on: HCC-2998 colon
HOP-18 NSCLC = tested on: HOP-18 NSCLC
KM12 colon = tested on: KM12 colon
NCI-H226 lung = tested on: NCI-H226 lung
OVCAR-3 ovarian = tested on: OVCAR-3 ovarian
OVCAR-4 ovarian = tested on: OVCAR-4 ovarian
SF-295 CNS = tested on: SF-295 CNS
SF-539 CNS = tested on: SF-539 CNS
ACHN renal = tested on: ACHN renal
HS 578T breast = tested on: HS 578T breast

Row | SMILES | TGI (HCC-2998 colon) [µM] | GI50 (HOP-18 NSCLC) [µM] | TGI (HOP-18 NSCLC) [µM] | TGI (KM12 colon) [µM] | TGI (NCI-H226 lung) [µM] | TGI (OVCAR-3 ovarian) [µM] | TGI (OVCAR-4 ovarian) [µM] | TGI (SF-295 CNS) [µM] | TGI (SF-539 CNS) [µM] | TGI (ACHN renal) [µM] | TGI (HS 578T breast) [µM] | GI50 (HS 578T breast) [µM] | GI50 (NCI-H226 lung) [µM] | GI50 (OVCAR-3 ovarian) [µM] | GI50 (OVCAR-4 ovarian) [µM] | GI50 (ACHN renal) [µM] | GI50 (HCC-2998 colon) [µM] | GI50 (KM12 colon) [µM] | GI50 (SF-295 CNS) [µM] | GI50 (SF-539 CNS) [µM]
1 | Cc1cc(-c2ccc(N=Nc3ccc4c(S(=O)(=O)O)cc(S(=O)(=O)O)c(N)c4c3O)c(C)c2)ccc1N=Nc1ccc2c(S(=O)(=O)O)cc(S(=O)(=O)O)c(N)c2c1O | > 100 | > 100 | > 100 | > 100 | > 100 | > 100 | > 100 | > 100 | > 100 |  |  |  |  |  |  |  |  |  |  | 
2 | CC(C)C(NCc1c2ccccc2[n+](C)c2ccccc12)C(=O)O (stereo unspecified) | 29.3 |  | 18.1 | 18.7 | 38.6 | 16.9 | 20.7 | 20.5 | 14.3 | 16.4 |  |  |  |  |  |  |  |  |  | 
3 | Cc1ccc(C(=O)Nc2ccc(CP(=O)(O)O)cc2CP(=O)(O)O)cc1N | > 100 |  |  | > 100 | > 100 | > 100 | > 100 | > 100 | > 100 | > 100 | > 100 |  |  |  |  |  |  |  |  | 
4 | Clc1[nH]nc2ccccc12 | > 100 |  |  | > 100 | > 100 | > 100 | > 100 | > 100 | > 100 | > 100 | > 100 |  |  |  |  |  |  |  |  | 
5 | COC(=O)CCC(C)[C@H]1CCC2C3CC[C@@H]4CC5(CC[C@]4(C)C3C[C@H](OC(C)=O)[C@@]21C)OOC1(CCCCC1)OO5 (stereo partly specified) | 9.2 |  |  | > 100 | > 100 | > 100 | > 100 | > 100 | > 100 | > 100 | > 100 |  |  |  |  |  |  |  |  | 
6 | [C-]#[O+].[Cl][Sn]([Cl])[Cl].[Cl][Sn]([Cl])[Cl].[Pt].c1cnc2c(c1)ccc1cccnc12 | 13.1 | 6.73 | > 100 | > 100 | > 42.4 | > 69.8 | > 27.4 | > 36.5 | 16.6 |  |  |  |  |  |  |  |  |  |  | 
7 | C[n+]1c2ccccc2n2c3ccccc3c(NCCCn3ccnc3)c(C#N)c21 | 3.1 |  |  | 17.7 | 9.11 | > 25.2 | 7.42 | 17.4 | 24.5 | > 27.7 | 6.78 |  |  |  |  |  |  |  |  | 
8 | COc1ccc(S(=O)(=O)NC(CCC(=O)NC(N)=O)C(=O)NC(N)=O)cc1 (stereo unspecified) | > 100 |  |  | > 100 | > 100 | > 100 | > 100 | > 100 | > 100 | > 100 | > 100 |  |  |  |  |  |  |  |  | 
9 | CC(C)Oc1cccc(N2C(CCc3c[nH]c4ccc(Br)cc34)=NS(=O)(=O)c3cnccc32)c1 | > 100 |  |  | > 100 | 97.8 | > 100 | > 100 | > 100 | > 100 | > 100 | > 100 |  |  |  |  |  |  |  |  | 
10 | O=c1[nH]c2c(Nc3c4ccccc4nc4ccccc34)c([N+](=O)[O-])c(Nc3c4ccccc4nc4ccccc34)c([N+](=O)[O-])c2[nH]1 | 3.5 |  |  | 12 | 6.3 | 6.87 | 10.1 | 12.8 | 18.6 | 4.78 | 7.12 |  |  |  |  |  |  |  |  | 
11 | Cc1ccc(NC(=O)CC/C(CC(=O)C(C)(C)C)=N/NC(=O)c2cc3ccccc3cc2O)cc1C | 55 |  | > 100 | > 100 | > 100 | > 100 | > 100 | > 100 |  | > 100 |  |  |  |  |  |  |  |  |  | 
12 | COc1cc(C=O)cc(C=Nc2ccc(Br)cc2)c1O | 38.9 |  |  | > 100 | 8.19 | > 100 | > 100 | 21.1 | 7 | 49.4 | 5.26 |  |  |  |  |  |  |  |  | 
13 | CC(C)OC(=O)C(NC(=O)C(CC(=O)OCc1ccccc1)NC(=O)OCc1ccccc1)NC(=O)C1C(C)(C)CCC1(C)C (stereo unspecified) | > 56.5 |  |  | 34.9 | 22.8 | 8.01 | 14.2 | 31.1 | 13.1 | 14.7 | 23.5 |  |  |  |  |  |  |  |  | 
14 | O=C1Nc2noc(=O)nc2NO1 | > 200 |  |  | > 200 | > 200 | > 200 | > 200 | > 200 | > 200 | > 200 | > 200 |  |  |  |  |  |  |  |  | 
15 | CN(Cc1cnc2nc(N)nc(N)c2n1)c1ccc(C(=O)NC(CCC(=O)O)C(=O)O)c2ccccc12 (stereo unspecified) |  | 0.0452 |  | > 1000 | > 1000 |  | > 1000 | > 1000 |  | > 1000 | > 1000 | > 1000 | > 1000 | 32.9 | > 1000 |  |  |  |  | 
16 | COc1cccc2c(=O)oc(-c3ccccc3C)nc12 | > 100 |  |  | > 100 | 57.8 | > 100 | 70.6 | 88.9 | 69.4 | > 100 | > 100 |  |  |  |  |  |  |  |  | 
17 | C/C(=N/NC(=S)Nc1ccc(C)cc1)c1ccccn1 | 18.6 |  |  | 15.5 | 2.6 | 12.2 | 17.2 | 11.8 | 7.41 | 11.9 | 17 |  |  |  |  |  |  |  |  | 
18 | COc1ccc(C2C(=O)c3ccc(OC)cc3OC2c2cccnc2)cc1 (stereo unspecified) | > 100 |  |  | > 100 | > 100 | > 100 | > 100 | > 100 | > 100 | > 100 | > 100 |  |  |  |  |  |  |  |  | 
19 | Cn1c(CO)ccc1-c1ccc(-c2ccc(CO)[se]2)[se]1 | 22.5 |  |  | > 64.1 | 2.56 | 26.7 | 3.67 | > 100 | > 100 | > 75.3 | > 100 |  |  |  |  |  |  |  |  | 
20 | COc1ccc(/C(C=O)=C(\Cl)c2ccc(OC)c(OC)c2)cc1 | > 100 |  | > 100 |  | > 100 | > 100 | > 100 | > 100 | > 100 | > 100 |  |  |  |  |  |  |  |  |  | 
21 | CN(C)c1cccc2c(S(=O)(=O)NCCN)cccc12 | > 100 |  |  | > 100 | > 100 | > 100 | > 100 | > 100 | > 100 | > 100 | > 100 |  |  |  |  |  |  |  |  | 
22 | CCC12CCC[C@@]13C=C[C@H](O3)C(C)(C)C2=O (stereo partly specified) | > 100 |  | > 100 |  | > 100 | > 100 | > 100 | > 100 | > 100 | > 100 |  |  |  |  |  |  |  |  |  | 
23 | CC[C@]1(c2ccc3c(c2)OCO3)C=[N+]([O-])O[C@H](OC2CCCC2(c2ccccc2)c2ccccc2)[C@@H]1OC(C)=O (stereo partly specified) | 4.05 |  |  | 3.62 | 22.7 | 3.42 | 10.1 | 3.2 | > 100 | 9.75 | > 100 |  |  |  |  |  |  |  |  | 
24 | CC1=NC(=N)N=C(C)C1N=Nc1ccc2nc(C)[nH]c2c1 (stereo unspecified) | > 100 |  |  | > 100 | > 100 | > 100 | > 100 | > 100 | > 100 | > 100 | > 100 |  |  |  |  |  |  |  |  | 
25 | COc1cc2c(cc1O)C(Cc1ccc(OCc3ccccc3)c(OCc3ccccc3)c1)N(C(=O)NCCc1ccccc1)CC2 (stereo unspecified) | > 100 |  |  | > 100 | > 100 | > 100 | > 100 | > 100 | > 100 | > 100 | > 100 |  |  |  |  |  |  |  |  | 
26 | Cc1n[nH]c(=O)n1-n1cccc1 | > 100 |  |  | > 100 | > 100 | > 100 | > 100 | > 100 | > 100 | > 100 | > 100 |  |  |  |  |  |  |  |  | 
27 | O=C(Nc1ccc(-n2cc(-c3ccncc3)c(-c3ccc(O)c(Cl)c3)n2)cc1)Nc1cc(C(F)(F)F)cc(C(F)(F)F)c1 | 22.1 |  |  | 11.7 | 29.4 | 6.76 | 10.7 | 6.56 | 15.3 | 11.7 | 7.41 | 1.94 | 13.3 | 2.73 | 2.92 | 3.24 | 5.03 | 3.3 | 2.08 | 3.81
